The structures appear in SMILES notation.

These results are taken from publication PMC8151276, “An Integrated Approach toward NanoBRET Tracers for Analysis of GPCR Ligand Engagement” (Molecules, 2021).

Holding throughout (format): binding
For one assay, the target named is T1, P2RY13 (Homo sapiens, UniProt Q9BPV8).
T1 construct: purchased Promega (in-house HiBiT-GPCR construct library, NanoBRET)
T1 sequence (Q9BPV8 1-354): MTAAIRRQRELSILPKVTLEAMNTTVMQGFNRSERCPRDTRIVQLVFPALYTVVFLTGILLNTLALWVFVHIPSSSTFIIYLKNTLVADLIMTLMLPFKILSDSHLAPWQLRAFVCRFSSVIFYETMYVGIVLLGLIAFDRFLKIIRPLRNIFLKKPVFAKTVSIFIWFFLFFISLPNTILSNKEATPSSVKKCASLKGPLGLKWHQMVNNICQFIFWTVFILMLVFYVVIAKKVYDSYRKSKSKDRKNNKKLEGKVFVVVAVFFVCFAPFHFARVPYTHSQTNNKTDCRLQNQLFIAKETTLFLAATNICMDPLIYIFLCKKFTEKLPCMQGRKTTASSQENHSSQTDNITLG
The assay is described as follows: NanoBRET screen HiBiT-P2RY13 in HEK293. As for the experimental part:
(§1) Each tracer candidate was screened across the entire library of HiBiT-GPCR constructs using NanoBRET as the detection modality. As depicted in Figure 4A, the specificity of interactions was evaluated through decrease in BRET due to competitive displacement of a bound tracer by excess parental compound. Each tracer was analyzed for binding to each HiBiT-GPCR fusion in the absence and in the presence of competing parental compound. Briefly, HEK293 cells were transfected with HiBiT-GPCR constructs diluted into promoterless DNA to reduce expression and maximize translocation to the cell surface. Each tracer candidate was then screened at concentrations of 1 μM and 0.1 μM across cells expressing these fusions. Cells were treated for 1.5 h with tracer either alone or in the presence of 20 μM competing parental compound (i.e., control). BRET was measured upon addition of purified LgBiT and subsequent complementation with HiBiT genetically fused to a GPCR. The specificity of interactions was assessed through a decrease in BRET signal due to competitive displacement of the bound tracer. To further gauge the robustness of these interactions, the fold response over the control (i.e., BRETtracer/BRETcontrol) was calculated. We chose a 1.5-fold response, which translates to ≥7-fold signal over noise as the minimal threshold required to score an interaction as positive. […]. Below we highlight the screening results obtained for our exemplary fluorescent tracers based on Clozapine, Amitriptyline and AZD1283.
(§2) HiBiT-GPCR DNA constructs were diluted in 10 mM Tris pH 8 to a final concentration of 0.01 μg/μL, arrayed in 96-well plates and stored at −20 °C. For transfection, HEK293 cells were suspended in Opti-MEM (without phenol red) supplemented with 2% fetal bovine serum (Seradigm) and 100 units/mL penicillin–streptomycin (Gibco) at a final concentration of 220,000 cells/mL and dispensed into white 96-well plates at 90 μL/well. Subsequent transfections and screens were carried using an Agilent Bravo Automated Liquid Handling Platform. First, the 96-well HiBiT DNA arrays were diluted 25-fold in Opti-MEM (without serum or phenol red) to a final concentration of 0.0004 μg/μL and 20 μL of the diluted DNAs were transferred into new 96-well plates. Next, promoterless carrier DNA (1 μg/μL) was diluted 25-fold (0.04 μg/μL) and then dispensed into the diluted arrays at 20 μL/well. Following brief mixing, Viafect transfection reagent (Promega) diluted 16-fold into Opti-MEM was dispensed into the plates at 40 μL/well. After mixing by pipetting, plates were incubated for 10 min on the pipetting station deck. The DNA-transfection reagent complexes were then added to plates containing cells. To facilitate the screen, 10 μL of DNA-transfection reagent complexes were added in duplicates to the top 4 and bottom 4 rows, resulting in two identical 48-well arrays per plate. Plates with transfected cells were incubated for 18–20 h at 37 °C/5% CO2. A screen of each tracer across the entire library using two different concentrations requires duplicate plates of transfected cells. Depending on the number of tracers being screened, transfections can be scaled up using the same ratios. The next day, for each tracer, four 20× screening solutions in tracer dilution buffer (Promega) were prepared: two duplicates at final concentration of 20 μM and two duplicates at a final concentration of 2 μM. A competing unmodified compound was added to one of each duplicate at a final concentration of 400 μM. The four resulting solutions were diluted 4-fold in Opti-MEM without serum or phenol red to generate 5× solutions (5 µM and 0.5 µM tracer +/− 100 μM competing compound). To screen the library, a BioTek MultiFlo FX liquid dispenser was used to dispense 22.5 µL of tracer solution to the top 4 rows and 22.5 µL tracer + competing compound solution to the 4 bottom rows. Plates were briefly mixed on an orbital shaker and incubated for 1.5 h at room temperature. […]
(In general: In BRET a luciferase serves as donor, and the signal depends on an acceptor being close.)

The target of another assay is T2, HTR1E (Homo sapiens, UniProt P28566).
T2 construct: purchased Promega (in-house HiBiT-GPCR construct library, NanoBRET)
The assay is described as follows: NanoBRET screen HiBiT-HTR1E in HEK293. As for the experimental part:
as §1, §2

The target in the next assay is T3, CCKBR (Homo sapiens, UniProt P32239).
T3 construct: purchased Promega (in-house HiBiT-GPCR construct library, NanoBRET)
T3 sequence (P32239 1-447): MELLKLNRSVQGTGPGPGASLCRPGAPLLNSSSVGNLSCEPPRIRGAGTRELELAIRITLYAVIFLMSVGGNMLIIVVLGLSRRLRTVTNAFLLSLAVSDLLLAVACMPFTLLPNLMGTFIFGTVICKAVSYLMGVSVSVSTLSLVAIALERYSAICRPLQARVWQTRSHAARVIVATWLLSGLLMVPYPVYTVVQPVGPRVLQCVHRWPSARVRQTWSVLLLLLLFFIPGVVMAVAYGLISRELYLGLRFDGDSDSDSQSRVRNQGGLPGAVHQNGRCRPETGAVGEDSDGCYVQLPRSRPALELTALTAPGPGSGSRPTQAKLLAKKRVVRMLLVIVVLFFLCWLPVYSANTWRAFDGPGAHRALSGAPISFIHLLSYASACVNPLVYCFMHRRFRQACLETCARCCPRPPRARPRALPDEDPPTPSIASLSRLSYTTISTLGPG
In words: NanoBRET screen HiBiT-CCKBR in HEK293. As for the experimental part: as §1, §2

T2 sequence (P28566 whole entry): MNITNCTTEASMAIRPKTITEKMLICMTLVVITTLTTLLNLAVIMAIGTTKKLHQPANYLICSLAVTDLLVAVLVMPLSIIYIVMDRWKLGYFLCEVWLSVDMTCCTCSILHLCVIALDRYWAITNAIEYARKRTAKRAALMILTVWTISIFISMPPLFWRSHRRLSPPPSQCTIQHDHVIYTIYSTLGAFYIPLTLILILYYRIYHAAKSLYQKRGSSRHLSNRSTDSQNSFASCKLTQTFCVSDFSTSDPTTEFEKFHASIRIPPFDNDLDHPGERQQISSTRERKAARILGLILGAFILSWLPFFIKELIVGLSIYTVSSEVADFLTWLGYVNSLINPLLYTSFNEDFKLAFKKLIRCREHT

Take `CCOC(=O)c1cc(C#N)c(N2CCC(C(=O)NS(=O)(=O)Cc3ccccc3/C=C/C(=O)NCCNC(=O)CCc3ccc4n3[B-](F)(F)[N+]3=C(c5ccc[nH]5)C=CC3=C4)CC2)nc1C` [AZD1283-1-NB590]: the “NanoBRET Fold Response” value at P2RY13 (P2RY13, 0.1μM) worked out at 1.93; at P2RY13 (P2RY13, 1μM), 1.83; on HTR1E (HTR1E, 0.1μM) it was 0.94; on HTR1E (HTR1E, 1μM), 0.96; at CCKBR (CCKBR, 0.1μM), 1.18; at CCKBR (CCKBR, 1μM), 1.10.

Regarding `COc1ccc2[nH]c(-c3ccc(CNC(=O)CCOCCOCCOCCOCCNC(=O)CCc4ccc5n4[B-](F)(F)[N+]4=C(c6ccc[nH]6)C=CC4=C5)cc3)c(CCNC(C)=O)c2n1` [AzomelatoninICO9-2-NB590], the “NanoBRET Fold Response” value was 0.87 at P2RY13 (0.1μM tracer); 1.09 on P2RY13 (1μM tracer); 0.97 on HTR1E (0.1μM tracer); 1.18 on HTR1E (1μM tracer); 1.13 at CCKBR (0.1μM tracer); 1.16 on CCKBR (1μM tracer).

On to `CC(C)N(CC[C@H](c1ccccc1)c1cc(CCNC(=O)CCOCCOCCOCCOCCNC(=O)CCc2ccc3n2[B-](F)(F)[N+]2=C(c4ccc[nH]4)C=CC2=C3)ccc1O)C(C)C` [Tolterodine-2-NB590], for which the “NanoBRET Fold Response” value on P2RY13 (P2RY13, tracer 0.1μM) is reported as 1.26; at P2RY13 (P2RY13, tracer 1μM) it was 1.28; on HTR1E (HTR1E, tracer 0.1μM), 1.27; on HTR1E (HTR1E, tracer 1μM), 1.10; on CCKBR (CCKBR, tracer 0.1μM) it was 0.97; at CCKBR (CCKBR, tracer 1μM) it was 1.07.

As to `CN1CCN(C2=Nc3cc(Cl)ccc3N(CC(=O)NCCOCCOCCOCCOCCNC(=O)CCc3ccc4n3[B-](F)(F)[N+]3=C(c5ccc[nH]5)C=CC3=C4)c3ccccc32)CC1` [Clozapine-c-2-NB590], the “NanoBRET Fold Response” value worked out at 0.99 on P2RY13 (P2RY13, 0.1μM tracer); 0.99 at P2RY13 (P2RY13, 1μM tracer); 1.00 at HTR1E (HTR1E, 0.1μM tracer); 0.91 at HTR1E (HTR1E, 1μM tracer); 1.04 at CCKBR (CCKBR, 0.1μM tracer); 1.01 at CCKBR (CCKBR, 1μM tracer).

For the compound `N#CN=C(NCCCOc1cccc(CN2CCCCC2)c1)NCCNC(=O)CCOCCOCCOCCOCCNC(=O)CCc1ccc2n1[B-](F)(F)[N+]1=C(c3ccc[nH]3)C=CC1=C2` [Aminopotentidine-2-NB590], the “NanoBRET Fold Response” value on P2RY13 (P2RY13, tracer 0.1μM) stood at 0.97; on P2RY13 (P2RY13, tracer 1μM), 1.02; at HTR1E (HTR1E, tracer 0.1μM), 0.93; at HTR1E (HTR1E, tracer 1μM), 1.06; at CCKBR (CCKBR, tracer 0.1μM), 1.17; at CCKBR (CCKBR, tracer 1μM) it was 1.04.

On to `COc1ccc2c(n1)c(CCNC(C)=O)cn2CCNC(=O)CCc1ccc2n1[B-](F)(F)[N+]1=C(c3ccc[nH]3)C=CC1=C2` [Azamelatonin-1-NB590], for which the “NanoBRET Fold Response” value at P2RY13 (0.1μM tracer) is reported as 1.08; at P2RY13 (1μM tracer), 1.08; at HTR1E (0.1μM tracer) it was 0.99; at HTR1E (1μM tracer), 0.99; at CCKBR (0.1μM tracer), 1.01; at CCKBR (1μM tracer), 1.02.

With `CC(C)N(CC[C@H](c1ccccc1)c1cc(CCNC(=O)c2ccc(CNC(=O)CCc3ccc4n3[B-](F)(F)[N+]3=C(c5ccc[nH]5)C=CC3=C4)cc2)ccc1O)C(C)C` [Tolterodine-BZ-NB590], the “NanoBRET Fold Response” value on P2RY13 (P2RY13, tracer 0.1μM) was 0.89; at P2RY13 (P2RY13, tracer 1μM), 0.94; on HTR1E (HTR1E, tracer 0.1μM), 1.13; on HTR1E (HTR1E, tracer 1μM), 1.13; at CCKBR (CCKBR, tracer 0.1μM), 0.97; on CCKBR (CCKBR, tracer 1μM), 1.06.

`O=C(CCc1ccc2n1[B-](F)(F)[N+]1=C(c3ccc[nH]3)C=CC1=C2)NCCOCCOCCNC(=O)OCCOCCN1CCN(C2=Nc3ccccc3Sc3ccccc32)CC1` [Quetiapine-a-2-NB590]: the “NanoBRET Fold Response” value was found to be 0.98 on P2RY13 (P2RY13, tracer 0.1μM); 0.95 at P2RY13 (P2RY13, tracer 1μM); 0.96 at HTR1E (HTR1E, tracer 0.1μM); 0.99 at HTR1E (HTR1E, tracer 1μM); 1.05 at CCKBR (CCKBR, tracer 0.1μM); 0.93 on CCKBR (CCKBR, tracer 1μM).
